According to patent publication US12053506B2, “Romo1-derived antimicrobial peptides and variants thereof” (priority 2019, dated 2024):

These substances were tested on Staphylococcus aureus (ATCC 29213) (assay: not given). Conditions: Tables 11-15, no unit printed.
Assay type: cell-based
Source text: (§1) Romo1 protein comprises two α-helices. The present inventors synthesized the α-helix 2 region having both hydrophilicity and hydrophobicity, and evaluated the antibacterial activity thereof using minimum bactericidal concentration (MBC) assay. The α-helix 2 region was named KU-5279 (the 52-79 amino acid region of Romo1 protein). Then, in order to identify peptides that are beneficial for human application and have excellent antibacterial activity, the present inventors synthesized several peptides comprising a sequence of contiguous amino acids starting at any amino acid selected from the 52-79 amino acid region of Romo1 protein, and comparatively evaluated the antibacterial activities of the peptides by minimum bactericidal concentration assay (See Table 1 below for information on each peptide). Evaluation of the antibacterial activity of each peptide by minimum bactericidal concentration assay was specifically performed as follows. First, each of Pseudomonas aeruginosa (ATCC 27853) and Staphylococcus aureus (ATCC 29213) was cultured in 3% (w/v) TSB (Tryptic Soy Broth) liquid medium at 37° C. and 200 rpm for 4 hours, and then further cultured under the same conditions for 3 hours to a concentration of 5×10^6 CFU/ml. Strain solutions were prepared by diluting each of the further cultured strains with SP (sodium phosphate; 10 mM sodium phosphate, 1% TSB) buffer to a final concentration of 2×10^5 CFU/ml. Then, each peptide at varying concentrations (0 μg/ml to 300 μg/ml) was dispensed into each well of a 96-well microplate, and 100 μl (1×10^5 CFU/ml) of each of the prepared strain solutions was added thereto, mixed therewith, and allowed to react with the peptide in an incubator at 37° C. for 1 hour. In addition, 30 g/L of TS (tryptic soy) and 15 g/L of agar were dissolved in distilled water and sterilized, and then 25 ml of the solution was poured onto a 100 mm round plate and solidified at room temperature for one day or more, thereby preparing a TS agar plate. 10 μl of each reaction solution of the peptide and the strain was plated on the TS agar plate at a constant size, and incubated in an incubator at 37° C. for 18 hours, and then colony formation on the plate was checked. The minimum bactericidal concentration was defined as the minimum concentration of the peptide at which no colony was formed, and the experimental results are shown in Table 1 below.

Substance | MBC Staphylococcus aureus [µg/mL]
KTMMQAGGTFGTFMAIGMGIR [KU-5878-S63A] | 300
KTMMQSGGTFGTFMAIGM-IR [Peptide 5878-d76G] | 70
KTMMQSGGRFGTFMAIGMGIR [KU-5878-T66R] | 90
KTMMQHGGTFGTFMAIGMGIR [KU-5878-S63H] | 100
KTMMASGGTFGTFMAIGMGIR [KU-5878-Q62A] | > 300
KTMMQSGGTFGTF-AIGMGIR [Peptide 5878-d71M] | 250
KTMMQSGGTFGTFMAIGMGIRKK [Peptide 5878-KK] | 16
KTMMHSGGTFGTFMAIGMGIR [KU-5878-Q62H] | > 300
KTMMQSGGTFGTFMA-GMGIR [Peptide 5878-d73I] | > 300
KTMMQSGGSFGTFMAIGMGIR [KU-5878-T66S] | > 300
KSMMQSGGTFGTFMAIGMGIR [KU-5878-T59S] | > 300
KTMMQSGGTFGTFMAIGMGIRRRR [Peptide 5878-3R] | 8
KTMMQSGGTFG-FMAIGMGIR [Peptide 5878-d69T] | 120
KT-MQSGGTFGTFM-IG-GIR [5878-d60M, d72A, d75M] | 280
KTMMQS-GTFGTFMAIGMGIR [Peptide 5878-d64G] | 100
KTMM-SGGTFGTFMAIGMGIR [Peptide 5878-d62Q] | 90

Each substance was assayed on Pseudomonas aeruginosa (ATCC 27853) (assay: not given). Conditions: Tables 11-15, no unit printed.
Assay type: cell-based
Source text: as §1

Substance | MBC Pseudomonas aeruginosa [µg/mL]
KTMMQAGGTFGTFMAIGMGIR [KU-5878-S63A] | 300
KTMMQSGGTFGTFMAIGM-IR [Peptide 5878-d76G] | 80
KTMMQSGGRFGTFMAIGMGIR [KU-5878-T66R] | 80
KTMMQHGGTFGTFMAIGMGIR [KU-5878-S63H] | 100
KTMMASGGTFGTFMAIGMGIR [KU-5878-Q62A] | > 300
KTMMQSGGTFGTF-AIGMGIR [Peptide 5878-d71M] | 250
KTMMQSGGTFGTFMAIGMGIRKK [Peptide 5878-KK] | 15
KTMMHSGGTFGTFMAIGMGIR [KU-5878-Q62H] | > 300
KTMMQSGGTFGTFMA-GMGIR [Peptide 5878-d73I] | > 300
KTMMQSGGSFGTFMAIGMGIR [KU-5878-T66S] | > 300
KSMMQSGGTFGTFMAIGMGIR [KU-5878-T59S] | > 300
KTMMQSGGTFGTFMAIGMGIRRRR [Peptide 5878-3R] | 8
KTMMQSGGTFG-FMAIGMGIR [Peptide 5878-d69T] | 120
KT-MQSGGTFGTFM-IG-GIR [5878-d60M, d72A, d75M] | 300
KTMMQS-GTFGTFMAIGMGIR [Peptide 5878-d64G] | 100
KTMM-SGGTFGTFMAIGMGIR [Peptide 5878-d62Q] | 100

The substances below were run on methicillin-resistant Staphylococcus aureus (ATCC 33591) (assay: not given). Conditions: Tables 11-15, no unit printed.
Protocol: First, each of Pseudomonas aeruginosa (ATCC 27853) and Staphylococcus aureus (ATCC 29213) was cultured in 3% (w/v) TSB (Tryptic Soy Broth) liquid medium at 37° C. and 200 rpm for 4 hours, and then further cultured under the same conditions for 3 hours to a concentration of 5×10^6 CFU/ml. Strain solutions were prepared by diluting each of the further cultured strains with SP (sodium phosphate; 10 mM sodium phosphate, 1% TSB) buffer to a final concentration of 2×10^5 CFU/ml.
(§2) Then, each peptide at varying concentrations (0 μg/ml to 300 μg/ml) was dispensed into each well of a 96-well microplate, and 100 μl (1×10^5 CFU/ml) of each of the prepared strain solutions was added thereto, mixed therewith, and allowed to react with the peptide in an incubator at 37° C. for 1 hour.
In addition, 30 g/L of TS (tryptic soy) and 15 g/L of agar were dissolved in distilled water and sterilized, and then 25 ml of the solution was poured onto a 100 mm round plate and solidified at room temperature for one day or more, thereby preparing a TS agar plate. 10 μl of each reaction solution of the peptide and the strain was plated on the TS agar plate at a constant size, and incubated in an incubator at 37° C. for 18 hours, and then colony formation on the plate was checked.
Specifically, each type of bacteria was cultured in 3% (w/v) TSB (Tryptic Soy Broth) liquid medium at 37° C. and 200 rpm for 4 hours, and then further cultured under the same conditions for 3 hours to a concentration of 5×10^6 CFU/ml. Strain solutions were prepared by diluting each of the […] of 2×10^5 CFU/ml.
as §2, with “Then, the KU-5878” for “Then, each”
In addition, 10 μl of each reaction solution of the peptide and the strain was plated on the TS agar plate at a constant size, and incubated in an incubator at 37° C. for 18 hours, and then colony formation on the plate was checked.

Substance | MBC MRSA [µg/mL]
KTMMQAGGTFGTFMAIGMGIR [KU-5878-S63A] | > 300
KTMMQSGGTFGTFMAIGM-IR [Peptide 5878-d76G] | 90
KTMMQSGGRFGTFMAIGMGIR [KU-5878-T66R] | 90
KTMMQHGGTFGTFMAIGMGIR [KU-5878-S63H] | 110
KTMMASGGTFGTFMAIGMGIR [KU-5878-Q62A] | > 300
KTMMQSGGTFGTF-AIGMGIR [Peptide 5878-d71M] | 300
KTMMQSGGTFGTFMAIGMGIRKK [Peptide 5878-KK] | 16
KTMMHSGGTFGTFMAIGMGIR [KU-5878-Q62H] | > 300
KTMMQSGGTFGTFMA-GMGIR [Peptide 5878-d73I] | > 300
KTMMQSGGSFGTFMAIGMGIR [KU-5878-T66S] | > 300
KSMMQSGGTFGTFMAIGMGIR [KU-5878-T59S] | > 300
KTMMQSGGTFGTFMAIGMGIRRRR [Peptide 5878-3R] | 10
KTMMQSGGTFG-FMAIGMGIR [Peptide 5878-d69T] | 140
KT-MQSGGTFGTFM-IG-GIR [5878-d60M, d72A, d75M] | 300
KTMMQS-GTFGTFMAIGMGIR [Peptide 5878-d64G] | 100
KTMM-SGGTFGTFMAIGMGIR [Peptide 5878-d62Q] | 100

Each substance was assayed on CRPA (assay: MBC, evaluation of antibacterial activities of KU-5878 variants). Conditions: Tables 11-15, no unit printed.
Assay type: cell-based
Protocol: Variants were prepared by deleting one amino acid from the amino acid sequence of KU-5878 (SEQ ID NO: 13), and the antibacterial activities thereof were evaluated.
Variants were prepared by deleting two or more amino acids from the amino acid sequence of KU-5878 (SEQ ID NO: 13), and the antibacterial activities thereof were evaluated.
One amino acid in the amino acid sequence of KU-5878 (SEQ ID NO: 13) was substituted, and the antibacterial activities of the peptides were evaluated.
Substitutions of Q62K, S63K and T66K were sequentially added to the amino acid sequence of KU-5878-T59K, and the antibacterial activities of the peptides were evaluated.
An amino acid repeat sequence was added to the C-terminus of KU-5878, and the antibacterial activities of the peptides were evaluated. According to Table 15 below, when the R (arginine) repeat sequence or K (lysine) sequence was added to the C-terminus of KU-5878, the antibacterial activity of the peptide increased.

Substance | MBC CRPA [µg/mL]
KTMMQAGGTFGTFMAIGMGIR [KU-5878-S63A] | 300
KTMMQSGGTFGTFMAIGM-IR [Peptide 5878-d76G] | 90
KTMMQSGGRFGTFMAIGMGIR [KU-5878-T66R] | 80
KTMMQHGGTFGTFMAIGMGIR [KU-5878-S63H] | 100
KTMMASGGTFGTFMAIGMGIR [KU-5878-Q62A] | > 300
KTMMQSGGTFGTF-AIGMGIR [Peptide 5878-d71M] | 300
KTMMQSGGTFGTFMAIGMGIRKK [Peptide 5878-KK] | 16
KTMMHSGGTFGTFMAIGMGIR [KU-5878-Q62H] | > 300
KTMMQSGGTFGTFMA-GMGIR [Peptide 5878-d73I] | > 300
KTMMQSGGSFGTFMAIGMGIR [KU-5878-T66S] | > 300
KSMMQSGGTFGTFMAIGMGIR [KU-5878-T59S] | > 300
KTMMQSGGTFGTFMAIGMGIRRRR [Peptide 5878-3R] | 8
KTMMQSGGTFG-FMAIGMGIR [Peptide 5878-d69T] | 140
KT-MQSGGTFGTFM-IG-GIR [5878-d60M, d72A, d75M] | 300
KTMMQS-GTFGTFMAIGMGIR [Peptide 5878-d64G] | 110
KTMM-SGGTFGTFMAIGMGIR [Peptide 5878-d62Q] | 100
